Consider two compounds from patent publication US20090264384A1, “INDOLE, BENZIMIDAZOLE, AND BENZOLACTAM BORONIC ACID COMPOUNDS, ANALOGS THEREOF AND METHODS OF USE THEREOF” (Nuada, Inc., priority 2004, published 2009).

In one data set the target is T1, NK2(h) (Homo sapiens, UniProt P21452).
T1 construct: expressed in transfected cells; host or cells: CHO cells
In words: NK2(h) binding assay. The conditions noted are these: 1.0E−05 M; read-out: % Inhibition of Control Specific Binding.

Data set [1] deals with Ca^2+ channel (L, verapamil site) (phenylalkylamines). Put plainly: Ca^2+ channel (L, verapamil site) binding assay. Also on record: species or system rat. The conditions noted are these: 1.0E−05 M.
For data set [2], the target named is Ca^2+ channel (L, DHP site) (Rattus norvegicus, UniProt P22002). Put plainly: Ca^2+ channel (L, DHP site) binding assay. The conditions noted are these: read-out: % Inhibition of Control Specific Binding.
A further data set deals with α1 (non-selective). Put plainly: α1 (non-selective) binding assay. Also noted: species or system rat. The conditions noted are these: 1.0E−05 M.
The next data set concerns the target T2, ETA(h) (Homo sapiens, UniProt P25101).
T2 construct: expressed in transfected cells; host or cells: CHO cells
In words: ETA(h) binding assay. The conditions noted are these: 1.0E−05 M; read-out: % Inhibition of Control Specific Binding.

Another data set deals with Protein kinase C. Put plainly: Protein kinase C enzyme assay. It counts as biochemical, rat. The conditions noted are these: 1.0E−05 M.
The target in another data set is CYP2C9 (Homo sapiens, UniProt P11712). Put plainly: ADME-Tox: In vitro Metabolism (Cytochrome P450, fluorogenic substrates BFC, CEC, MFC). The conditions noted are these: human. Also on record: inhibition: dose or concentration left out as unconfirmed.
In another data set the test system is P2Y. Put plainly: P2Y binding assay. The conditions noted are these: 1.0E−05 M. Also noted: species or system rat.
For the next data set, the target named is T3, MC4(h) (Homo sapiens, UniProt P32245).
T3 construct: expressed in transfected cells; host or cells: HEK-293 cells
In words: MC4(h) binding assay. The conditions noted are these: 1.0E−05 M; read-out: % Inhibition of Control Specific Binding.

In a further data set the target is T4, AT1(h) (Homo sapiens, UniProt P30556).
T4 construct: expressed in transfected cells; host or cells: CHO cells
Put plainly: AT1(h) binding assay. The conditions noted are these: read-out: % Inhibition of Control Specific Binding.

For the next data set, the target named is T5, D3(h) (Homo sapiens, UniProt P35462).
T5 construct: expressed in transfected cells; host or cells: CHO cells
Put plainly: D3(h) binding assay. The conditions noted are these: 1.0E−05 M; read-out: % Inhibition of Control Specific Binding.

The test system of a further data set is GABA (non-selective). In kind it is binding, rat. The conditions noted are these: 1.0E−05 M.
The next data set addresses T6, NK1(h) (Homo sapiens, UniProt P25103).
T6 construct: NK1(h); U-373MG cells; [Sar^9,Met(O2)^11]-SP; Heuillet et al. (1993); endogenous in cells; host or cells: U-373MG cells
In words: NK1(h) binding assay. The conditions noted are these: read-out: % Inhibition of Control Specific Binding.

The next data set concerns the target T7, Estrogen(h) (ER) (Homo sapiens, UniProt P03372).
T7 construct: Estrogen(h); MCF-7 cells; 17-β-estradiol; Sheen et al. (1985); endogenous in cells; host or cells: MCF-7 cells (cytosol)
Put plainly: Estrogen(h) (ER) binding assay. The conditions noted are these: 1.0E−05 M.

Data set [3] deals with chronic colitis provoked by trinitrobenzene sulphonic acid (TNBS). Put plainly: Rat model of chronic colitis provoked by TNBS over 14 days, treatment from Day 1. It counts as in vivo. An excerpt: In the chronic model of colitis, assessment of the colonic inflammation is made 14 days or longer, after the intracolonic challenge with TNBS (Boughton-Smith et al, 1988a, 1988b; Wallace et al, 1989; Rachmilewitz et al, 1989; Wallace and Keenan, 1990; Ameho et al, 1987; Sans et al, 1999; Sun et al, 2001; Maric et al, 2003; Moreels et al, 2004; Gonzalez et al, 2004). This model allows treatment with experimental agents to commence following the establishment of the colonic injury, typically 24 hours after the TNBS challenge (Galvez et al, 2000, Villegas, 2003, Gonzalez et al, 2004). The model should therefore identify the ability of the experimental compounds to accelerate the diminution of the inflammatory response and to promote healing of the colonic lesions. This model thus has relevance additional to the acute model, as the clinical correlate is the therapeutic intervention in patients with existing IBD not in remission or with flare-up, to reduce the crisis. This contrasts with the acute TNBS model where the compounds are administered one or two days prior to challenge, the clinical correlate being the use of prophylactic therapy to prevent flare-up and maintain remission in IBD patients.
In this current study, the low intracolonic challenge concentration of TNBS used in the acute studies was also used for the chronic study over a 14 day period. This concentration and timing was based on the findings from pilot studies where a range of concentrations of TNBS and treatment conditions were evaluated over a 14 day period. […].
The methods and protocol used were substantially similar to those in Example 39-40, with some differences described below.
TNBS Challenge. Male Wistar rats (average body weight, 210 g) were randomised into groups before commencement of the study. In all groups, including the non-challenged and non-treated absolute control group, food was withdrawn for 12 h before TNBS administration (i.e. overnight on Day −1), but the rats were allowed free access to drinking water.
On the morning of the day of challenge (Day 0, between 9.00 and 1 1.00 a.m.), the rats were transiently anaesthetised with ether and the TNBS solution (10 mg in 0.25 ml of 50% ethanol) was instilled approximately 6-8 cm into the colon using a soft plastic catheter inserted in the rat rectum. The rats were allowed to recover with free access to food and drinking water. At the end of the experiment, on the morning of Day 14, between 9.00 and 11.00), the colon was dissected, and the distal 8 cm photographed and immediately processed or stored appropriately for subsequent analyses.
The following primary parameters were measured in the study: macroscopic scoring of distal 8 cm of colon; myeloperoxidase levels in segments of distal 8 cm of colon; TNF-α levels in segments of distal 8 cm of colon.
In addition, the weight of the standard colonic segment was assessed as an indirect and non-specific marker of oedema. The body weight of the animals was also determined each evening of the study, starting on Day-1, and also on the morning of Day 14. The data is shown graphically as the % change from the weight on Day-1, prior to challenge.
Treatments. The TNBS challenged groups for study were: (a) Vehicle control 0.5% carboxy methyl cellulose (CMC) p.o., twice daily from Day; (b) CCI-7506 25 mg/kg, p.o., twice daily from Day 1 (50 mg/kg/day total); (c) CCI-7506 50 mg/kg, p.o., twice daily from Day 1 (100 mg/kg/day total); (d) CCI-7507 12.5 mg/kg, p.o., twice daily from Day 1 (25 mg/kg/day total); (e) CCI-7507 25 mg/kg, p.o., twice daily from Day 1(50 mg/kg/day total); […]; (g) Infliximab 3 mg/kg, single slow i.v. injection, on Day 1 and Day7.
The experimental compounds that were administered orally were given twice a day from Day 1, i.e. 24 h following TNBS administration, for the remainder of the 14 day experimental period. Infliximab was administered by slow i.v. injection of Day 1 and on Day 7. […]

Setting [4] is: 50 mg/kg/day p.o. from Day 1, Day 14, vs CMC group.

The structures appear in SMILES notation.

T5 sequence (P35462 whole entry): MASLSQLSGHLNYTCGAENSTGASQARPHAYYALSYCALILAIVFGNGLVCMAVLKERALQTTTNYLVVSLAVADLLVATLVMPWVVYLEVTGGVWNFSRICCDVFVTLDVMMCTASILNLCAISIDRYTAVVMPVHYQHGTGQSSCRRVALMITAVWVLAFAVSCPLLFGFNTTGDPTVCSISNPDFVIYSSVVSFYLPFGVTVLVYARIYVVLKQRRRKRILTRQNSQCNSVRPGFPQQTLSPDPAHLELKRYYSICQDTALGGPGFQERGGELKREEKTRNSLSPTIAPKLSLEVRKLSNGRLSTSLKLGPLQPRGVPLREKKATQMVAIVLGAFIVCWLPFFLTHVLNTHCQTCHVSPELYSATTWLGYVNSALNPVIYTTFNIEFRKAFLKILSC
T6 sequence (P25103 whole entry): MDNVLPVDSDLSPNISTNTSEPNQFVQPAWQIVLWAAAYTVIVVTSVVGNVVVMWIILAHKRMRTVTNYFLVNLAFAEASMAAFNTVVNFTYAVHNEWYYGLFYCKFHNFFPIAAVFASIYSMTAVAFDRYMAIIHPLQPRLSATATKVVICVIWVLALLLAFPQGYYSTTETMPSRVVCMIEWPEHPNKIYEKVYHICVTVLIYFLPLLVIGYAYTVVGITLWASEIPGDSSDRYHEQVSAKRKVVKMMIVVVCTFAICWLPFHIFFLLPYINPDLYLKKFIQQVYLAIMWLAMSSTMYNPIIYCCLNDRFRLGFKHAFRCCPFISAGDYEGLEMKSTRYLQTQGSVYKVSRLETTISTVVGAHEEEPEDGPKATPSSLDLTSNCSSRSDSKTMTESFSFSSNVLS
Ca^2+ channel (L, DHP site), sequence (P22002 whole entry): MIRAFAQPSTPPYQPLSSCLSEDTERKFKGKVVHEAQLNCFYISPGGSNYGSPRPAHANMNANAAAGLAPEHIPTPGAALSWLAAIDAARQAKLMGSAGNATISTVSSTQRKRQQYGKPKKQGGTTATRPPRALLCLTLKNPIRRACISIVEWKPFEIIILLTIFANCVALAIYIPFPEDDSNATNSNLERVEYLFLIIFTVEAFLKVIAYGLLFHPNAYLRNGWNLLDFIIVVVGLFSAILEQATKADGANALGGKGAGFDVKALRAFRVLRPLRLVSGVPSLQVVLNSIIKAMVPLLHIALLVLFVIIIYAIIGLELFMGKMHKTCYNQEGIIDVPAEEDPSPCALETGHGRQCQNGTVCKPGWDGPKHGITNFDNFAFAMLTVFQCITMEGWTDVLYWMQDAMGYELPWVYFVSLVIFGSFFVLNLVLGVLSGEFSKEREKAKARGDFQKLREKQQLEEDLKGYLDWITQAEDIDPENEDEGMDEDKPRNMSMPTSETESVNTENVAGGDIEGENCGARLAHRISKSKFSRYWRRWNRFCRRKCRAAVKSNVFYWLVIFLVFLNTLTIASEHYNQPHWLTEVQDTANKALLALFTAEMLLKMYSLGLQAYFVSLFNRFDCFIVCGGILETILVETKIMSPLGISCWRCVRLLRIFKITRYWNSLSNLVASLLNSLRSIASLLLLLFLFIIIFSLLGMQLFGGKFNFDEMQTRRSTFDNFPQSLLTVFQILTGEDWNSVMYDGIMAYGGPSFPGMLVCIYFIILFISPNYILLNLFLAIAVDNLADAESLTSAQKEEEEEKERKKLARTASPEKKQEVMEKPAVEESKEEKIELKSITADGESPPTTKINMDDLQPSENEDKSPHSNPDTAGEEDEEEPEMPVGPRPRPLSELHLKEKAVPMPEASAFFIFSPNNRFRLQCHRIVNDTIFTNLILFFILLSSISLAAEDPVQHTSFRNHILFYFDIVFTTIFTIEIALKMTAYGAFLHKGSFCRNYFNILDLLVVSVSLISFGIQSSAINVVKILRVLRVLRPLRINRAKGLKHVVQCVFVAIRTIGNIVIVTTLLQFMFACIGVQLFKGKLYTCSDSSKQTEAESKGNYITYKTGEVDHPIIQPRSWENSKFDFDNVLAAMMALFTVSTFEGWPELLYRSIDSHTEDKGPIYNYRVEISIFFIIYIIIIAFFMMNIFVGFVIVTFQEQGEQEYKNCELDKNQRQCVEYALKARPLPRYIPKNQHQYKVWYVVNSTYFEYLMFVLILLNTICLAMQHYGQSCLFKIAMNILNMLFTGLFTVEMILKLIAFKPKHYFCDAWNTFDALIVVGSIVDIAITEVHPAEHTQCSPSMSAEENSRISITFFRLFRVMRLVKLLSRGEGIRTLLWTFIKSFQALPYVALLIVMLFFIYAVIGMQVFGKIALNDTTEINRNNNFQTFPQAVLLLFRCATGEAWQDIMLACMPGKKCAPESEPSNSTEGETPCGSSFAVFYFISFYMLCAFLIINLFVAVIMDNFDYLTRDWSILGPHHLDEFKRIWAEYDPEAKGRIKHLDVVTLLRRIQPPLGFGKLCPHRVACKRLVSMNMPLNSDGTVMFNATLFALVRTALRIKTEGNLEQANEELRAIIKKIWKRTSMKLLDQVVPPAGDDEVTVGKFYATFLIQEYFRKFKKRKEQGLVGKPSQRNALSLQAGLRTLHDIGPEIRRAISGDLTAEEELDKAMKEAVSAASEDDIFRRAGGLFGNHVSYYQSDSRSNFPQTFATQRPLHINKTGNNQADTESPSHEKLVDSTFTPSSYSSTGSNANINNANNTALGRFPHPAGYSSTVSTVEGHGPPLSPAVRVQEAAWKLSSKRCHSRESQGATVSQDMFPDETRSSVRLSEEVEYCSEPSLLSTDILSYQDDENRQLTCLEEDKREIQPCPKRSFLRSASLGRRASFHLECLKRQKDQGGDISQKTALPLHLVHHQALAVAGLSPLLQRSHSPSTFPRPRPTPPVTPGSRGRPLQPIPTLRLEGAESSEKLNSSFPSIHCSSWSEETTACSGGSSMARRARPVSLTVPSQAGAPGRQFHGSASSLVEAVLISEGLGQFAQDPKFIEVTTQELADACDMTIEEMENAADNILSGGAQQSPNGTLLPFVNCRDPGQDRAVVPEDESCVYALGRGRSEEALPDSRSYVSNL
T2 sequence (P25101 21-427): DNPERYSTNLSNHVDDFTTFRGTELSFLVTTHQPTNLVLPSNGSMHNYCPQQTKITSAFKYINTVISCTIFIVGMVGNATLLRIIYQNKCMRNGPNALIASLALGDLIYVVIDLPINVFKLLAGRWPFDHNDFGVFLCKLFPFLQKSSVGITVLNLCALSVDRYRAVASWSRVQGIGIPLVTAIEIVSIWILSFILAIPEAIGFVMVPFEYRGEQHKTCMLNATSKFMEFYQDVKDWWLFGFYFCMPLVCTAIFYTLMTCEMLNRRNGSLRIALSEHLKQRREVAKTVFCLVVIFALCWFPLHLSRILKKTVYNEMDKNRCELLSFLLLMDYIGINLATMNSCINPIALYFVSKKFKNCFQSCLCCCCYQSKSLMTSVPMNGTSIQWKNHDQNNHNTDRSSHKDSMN
T1 sequence (P21452 whole entry): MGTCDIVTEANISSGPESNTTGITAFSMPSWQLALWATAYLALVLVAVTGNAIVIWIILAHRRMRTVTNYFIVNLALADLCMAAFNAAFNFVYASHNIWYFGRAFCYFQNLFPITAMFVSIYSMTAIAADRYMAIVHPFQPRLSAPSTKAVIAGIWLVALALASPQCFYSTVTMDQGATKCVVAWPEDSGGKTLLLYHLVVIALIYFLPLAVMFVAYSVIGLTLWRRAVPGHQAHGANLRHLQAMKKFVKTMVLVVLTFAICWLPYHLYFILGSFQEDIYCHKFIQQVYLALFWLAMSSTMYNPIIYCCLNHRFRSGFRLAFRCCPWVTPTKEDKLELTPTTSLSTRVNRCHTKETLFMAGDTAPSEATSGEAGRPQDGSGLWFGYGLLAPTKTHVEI
CYP2C9, sequence (P11712 whole entry): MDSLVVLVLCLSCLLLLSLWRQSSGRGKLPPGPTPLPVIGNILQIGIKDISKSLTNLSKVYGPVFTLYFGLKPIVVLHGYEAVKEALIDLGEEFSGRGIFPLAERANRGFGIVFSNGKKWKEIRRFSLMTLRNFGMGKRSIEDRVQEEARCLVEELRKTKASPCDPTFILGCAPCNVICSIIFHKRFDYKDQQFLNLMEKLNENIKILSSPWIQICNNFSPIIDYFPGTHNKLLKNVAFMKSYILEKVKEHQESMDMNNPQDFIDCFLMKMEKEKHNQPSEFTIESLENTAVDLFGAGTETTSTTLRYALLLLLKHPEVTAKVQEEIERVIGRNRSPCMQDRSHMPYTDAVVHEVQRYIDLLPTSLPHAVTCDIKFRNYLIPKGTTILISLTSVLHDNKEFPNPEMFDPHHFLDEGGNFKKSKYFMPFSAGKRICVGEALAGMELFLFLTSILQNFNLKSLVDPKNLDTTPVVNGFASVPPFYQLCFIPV
T7 sequence (P03372 whole entry): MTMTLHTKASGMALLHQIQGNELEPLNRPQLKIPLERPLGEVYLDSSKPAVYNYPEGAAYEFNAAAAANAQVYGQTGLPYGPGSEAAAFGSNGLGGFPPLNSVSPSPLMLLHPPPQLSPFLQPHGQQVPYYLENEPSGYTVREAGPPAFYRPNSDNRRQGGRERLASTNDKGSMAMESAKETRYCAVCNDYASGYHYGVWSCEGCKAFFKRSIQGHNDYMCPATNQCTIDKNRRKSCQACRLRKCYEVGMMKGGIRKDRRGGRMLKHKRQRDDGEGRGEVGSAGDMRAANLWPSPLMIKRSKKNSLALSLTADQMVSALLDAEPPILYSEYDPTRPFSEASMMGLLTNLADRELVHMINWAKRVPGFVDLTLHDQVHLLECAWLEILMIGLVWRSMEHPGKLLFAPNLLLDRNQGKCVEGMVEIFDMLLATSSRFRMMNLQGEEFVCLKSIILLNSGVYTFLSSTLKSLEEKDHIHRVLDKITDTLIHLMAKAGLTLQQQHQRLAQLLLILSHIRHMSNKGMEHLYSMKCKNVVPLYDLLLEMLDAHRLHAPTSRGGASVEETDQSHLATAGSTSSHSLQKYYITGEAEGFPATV

On to `N#Cc1ccc2c(ccn2CCCCCB(O)O)c1` [Example 20, 5-(5-cyano-1H-indol-1-yl)pentylboronic acid], for which the inhibition at 10 µM at NK2(h) is -2%; in data set [2], -10%; at ETA(h), -25%; at MC4(h) it was 2%; at AT1(h) it was -3%; at D3(h), 4%. Also, the inhibition at 10 µM at NK1(h) was determined as 12%. In addition, the “% Inhibition of Control Specific Binding” value is −12% in data set [1]; 21% in the data set with α1 (non-selective); −19% in the data set on P2Y; −15% in the data set on GABA (non-selective); 3% at Estrogen(h) (ER). In the data set with Protein kinase C, the “% Inhibition of Control Values” is 0%. Moreover, the inhibition against CYP2C9 came to 73%.

With `O=C(O)c1cc(/N=N/c2ccc(S(=O)(=O)Nc3ccccn3)cc2)ccc1O` [sulfasalazine, reference compound], the “macroscopic Damage Score” value in [3] (50 mg/kg/day p.o. from Day 1, Day 14) was “reduced the damage score”. Moreover, in data set [3] (setting [4]), the “reduction in colon weight” value is given as “significant (P<0.05) reduction in colon weight”, the “reduction in colonic MPO activity” value was “significantly (P<0.001) reduced the elevated colonic levels of MPO”, the “reduction in colonic TNF-α levels” value was “significantly reduced the elevated colonic levels of TNF-α” and the “reduction in colonic lesion area (% of the total area measured)” value is “significantly (P<0.001) reduced the extent of macroscopic injury”. Further, in data set [3] (50 mg/kg/day p.o. in divided doses from Day 1, over 14 days, vs CMC group), the “attenuation of TNBS-induced fall in body weight (% change of body weight at Day −1)” value is “reached statistical significance compared with the CMC challenged group on at Day 2, 3, 6 and 7”.

Broadly, the inhibition is the relative decrease from the control value, in per cent.
